Assay results as given in patent US9168286B2, “Methods and compositions for use in treatment of patients with autoantibody positive disease” (Human Genome Sciences, Inc., priority 2005, dated 2015).

What was measured:
subjects with RA = assay: Phase 2 clinical trial of belimumab in rheumatoid arthritis: biomarkers; assay type: in vivo, human
Text: (§1) ACR20 response increased to approximately 40% at Week 48.

[1] = Phase 2 clinical trial of belimumab in rheumatoid arthritis: serum concentrations; details: human, in vivo
Text: as §1

subjects with SLE [2] = assay: Phase 2 clinical trial of belimumab in SLE with 24-week extension and continuation trial: disease activity (SELENA SLEDAI, SLE Flare Index, PGA, BILAG, SF-36); assay type: in vivo, human
Protocol: Further, response rates among the treatment groups in the trial were also analyzed using a combined response endpoint (row 1), which combined a measure of global disease activity as measured by the SS score, with a measure of a patient's overall condition as assessed by the PGA disease activity index and a measure of disease in specific organ systems as measured by the BILAG scale.
Serum autoantibodies, Ig isotypes and complement (C3, C4) were measured at 1-3 month intervals. […]

subjects with SLE [3] = assay: Phase 2 clinical trial of belimumab in SLE with extension and continuation trial: biologic markers (B cells, autoantibodies, Ig isotypes, C3/C4); assay type: in vivo, human; parameters: median percent change in CD20+ B cells (reduction) / median percent change in plasmacytoid B cells (CD20+/CD138+) (reduction) / median percent change in activated B cells (CD20+/CD69+) (reduction) / percent of subjects with significant anti-dsDNA reduction / IgE reduction: concentration or dose not given beside the values
Protocol: Of the patients who completed 52 weeks of treatment in the randomized, double-blind, placebo-controlled Phase 2 trial (see example 1), 96% (351/364) elected to enter the 24-week extension phase of the trial, and 92% (321/351) of those who entered completed it.
Serum autoantibodies, Ig isotypes and complement (C3, C4) were measured at 1-3 month intervals. In addition, the population with baseline serologic activity (ANA ≧1:80 or anti-dsDNA Ab ≧30IU; 72% of the original cohort herein called seropositive patients or seropositive subjects) was evaluated for SS, physician global assessment (PGA 0-3 units), BILAG, […] Functional Index (SFI) and autoantibody status at 1-3 month intervals.

[4] = ANA+ subjects, week 52, 1.0 mg/kg, N = 78
[5] = ANA+ subjects, week 52, 4.0 mg/kg, N = 79
[6] = ANA+ subjects, week 52, 10.0 mg/kg, N = 78

Substance: belimumab: an antibody that neutralizes Neutrokine-alpha protein
- Effects on biomarkers (subjects with RA; continued treatment in the extension period): increased or were sustained
- CD20+ B-cells (subjects with RA; human, in vivo): statistically significant reductions
- RF (rheumatoid factor) (subjects with RA; human, in vivo): statistically significant reductions
- activated B-cells (subjects with RA; human, in vivo): statistically significant reductions
- memory cells (subjects with RA; human, in vivo): increased within first month of treatment and slowly declined with continued treatment
- naïve B-cells (subjects with RA; human, in vivo): statistically significant reductions
- Serum concentrations [1]: within the range expected based on the Phase 1 data
- effect of concomitant medications (methotrexate, leflunomide or hydroxychloroquine) on belimumab exposures [1]: no significant effect
- dose response in efficacy (subjects with SLE [2]; 1, 4, 10 mg/kg): no dose response in efficacy
- mean percent change from baseline PGA (subjects with SLE [2]; ANA+ subjects vs ANA+ placebo, as early as week 4, also weeks 8, 16, 48 (p<0.05), 52 (p<0.01)): significant improvement
- mean SF-36 Physical Component Score (SF-36 PCS) (subjects with SLE [2]; ANA+ subjects vs ANA+ placebo, weeks 12, 24, 48, 52, p<0.05): significant improvements
- frequency of increase in prednisone from ≦[…] to >[…] (subjects with SLE [2]; ANA+ subjects, as early as week 8, p<0.05 over weeks 8-12 and 32-40): significant reduction
- combined response endpoint (SS, PGA, BILAG) (subjects with SLE [2]; ANA+ subjects, p=0.0058): significant response
- % of subjects with no worsening by PGA (<0.3 point increase from baseline) (subjects with SLE [2]; [4]): (89.7%)
- % of subjects with reduction in SELENA SLEDAI ≧4 (subjects with SLE [2]; [4]): (52.6%)
- subjects with no worsening by PGA (<0.3 point increase from baseline), number (subjects with SLE [2]; [4]): 70
- subjects with reduction in SELENA SLEDAI ≧4, number (subjects with SLE [2]; [4]): 41
- % of subjects with no worsening by PGA (<0.3 point increase from baseline) (subjects with SLE [2]; [5]): (88.6%)
- % of subjects with reduction in SELENA SLEDAI ≧4 (subjects with SLE [2]; [5]): (48.1%)
- subjects with no worsening by PGA (<0.3 point increase from baseline), number (subjects with SLE [2]; [5]): 70
- subjects with reduction in SELENA SLEDAI ≧4, number (subjects with SLE [2]; [5]): 38
- % of subjects with no worsening by PGA (<0.3 point increase from baseline) (subjects with SLE [2]; [6]): (92.3%)
- % of subjects with reduction in SELENA SLEDAI ≧4 (subjects with SLE [2]; [6]): (47.4%)
- subjects with no worsening by PGA (<0.3 point increase from baseline), number (subjects with SLE [2]; [6]): 72
- subjects with reduction in SELENA SLEDAI ≧4, number (subjects with SLE [2]; [6]): 37
- subjects with no worsening by PGA (<0.3 point increase from baseline), number (subjects with SLE [2]; ANA+ subjects, week 52, All Active, N = 235, P 0.0027 vs placebo): 212
- % of subjects with no worsening by PGA (<0.3 point increase from baseline) (subjects with SLE [2]; ANA+ subjects, week 52, All Active, N = 235, P 0.0027 vs placebo (76.7%)): (90.2%)
- subjects with reduction in SELENA SLEDAI ≧4, number (subjects with SLE [2]; ANA+ subjects, week 52, All Active, N = 235, P 0.1169 vs placebo): 116
- increases in BILAG organ domain score: musculoskeletal (subjects with SLE [2]; ANA+ subjects, week 52, p<0.008): fewer increases in score
- increases in BILAG organ domain score: neurological (subjects with SLE [2]; ANA+ subjects, week 52, p<0.038): fewer increases in score
- increases in BILAG organ domain score: general (subjects with SLE [2]; ANA+ subjects, week 52, p<0.15): trend toward fewer increases in score
- increases in BILAG organ domain score: renal (subjects with SLE [2]; ANA+ subjects, week 52, p<0.15): trend toward fewer increases in score
- reduction in SELENA SLEDAI (SS) score (subjects with SLE [2]; ANA+ subjects, week 52, p=0.0435): 29%
- increases in BILAG organ domain score: cardiovascular & respiratory (subjects with SLE [2]; ANA+ subjects, week 52, p=0.060): trend toward fewer increases in score
- subjects with increases of prednisone to >[…] (subjects with SLE [2]; belimumab-treated, placebo ~15%): ~7%
- PGA score (subjects with SLE [2]; by week 16 (p=0.016) through week 52 (p<0.002), all active vs. placebo): improved
- dosage of prednisone necessary to ameliorate disease manifestations (subjects with SLE [2]; lupus patients, IV days 0, 14, 28 then every four weeks until week 52): effective in reducing the dosage of the corticosteroid prednisone
- symptoms associated with lupus (subjects with SLE [2]; patients with ANA titer 1:80 or greater and/or ≧30 IU/mL anti-dsDNA, IV days 0, 14, 28 then every four weeks until week 52): significantly ameliorated symptoms associated with lupus
- combined response rate (subjects with SLE [2]; seropositive subjects (n=175) who completed 128 weeks): 63%
- combined response rate (subjects with SLE [2]; seropositive subjects (n=321), all belimumab treatment groups combined, week 56, placebo 35%, p<0.05): 49%
- SLE flare rate (SFI), percent of subjects with at least one flare (subjects with SLE [2]; seropositive subjects, fifth six-month interval): 33%
- SLE flare rate (SFI), percent of subjects with at least one flare (subjects with SLE [2]; seropositive subjects, first six-month interval, placebo 76%): 72%
- SLE flare rate (SFI), percent of subjects with at least one flare (subjects with SLE [2]; seropositive subjects, fourth six-month interval): 30%
- SLE flare rate (SFI), percent of subjects with at least one flare (subjects with SLE [2]; seropositive subjects, second six-month interval, placebo 73%): 61%
- SLE flare rate (SFI), percent of subjects with at least one flare (subjects with SLE [2]; seropositive subjects, third six-month interval): 57%
- combined response rate (subjects with SLE [2]; seropositive subjects, weeks 76-128 of continuous therapy (ITT analysis)): 55%
- combined response rate (subjects with SLE [2]; subjects with baseline Anti-dsDNA autoantibodies, week 52): 47%
- combined response rate (subjects with SLE [2]; subjects with baseline Anti-dsDNA autoantibodies, week 128): 53%
- combined response rate (subjects with SLE [2]; subjects with baseline RNP autoantibodies, week 52): 42%
- combined response rate (subjects with SLE [2]; subjects with baseline RNP autoantibodies, week 128): 52%
- combined response rate (subjects with SLE [2]; subjects with baseline Ro autoantibodies, week 52): 41%
- combined response rate (subjects with SLE [2]; subjects with baseline Ro autoantibodies, week 128): 51%
- combined response rate (subjects with SLE [2]; subjects with baseline aCl autoantibodies, week 52): 51%
- combined response rate (subjects with SLE [2]; subjects with baseline aCl autoantibodies, week 128): 51%
- composite numerical BILAG scores (subjects with SLE [2]; vs. placebo): no significant differences
- percent of seropositive subjects with new 1A or 2B BILAG flares (subjects with SLE [2]; week 52, placebo 19%, p=0.0152): 9%
- seropositive subjects with worsening PGA scores (subjects with SLE [2]; week 52, placebo 23%, p=0.0027): 10%
- percent of seropositive subjects with SS>4 point improvement (subjects with SLE [2]; weeks 76-128): 58-60%
- percent of seropositive subjects with new 1A or 2B BILAG flares (subjects with SLE [2]; weeks 96-128): 6-7%
- seropositive subjects with worsening PGA scores (subjects with SLE [2]; weeks 96-128): 7-9%
- subjects with elevated Ig isotype levels at baseline returned to normal Ig isotype levels (subjects with SLE [3]; 52/128, p=0.0014, control 16% (7/45)): 41%
- decrease of anti-dsDNA levels (subjects with SLE [3]; anti-dsDNA+ at baseline, weeks 52-128, placebo week 52=9%): 29-44%
- serum IgG, IgA, IgE and IgM levels, median percent change from baseline (subjects with SLE [3]; as early as week 8, p<0.0001 vs placebo): Significant belimumab-induced reductions
- time at which maximal median reductions of each Ig isotype were reached (subjects with SLE [3]; belimumab-treated subjects): 8-24 weeks
- percent of subjects with significant anti-dsDNA reduction (subjects with SLE [3]; clinical responders, week 52): 35%
